This passage reports IC50 results from patent publication US20050192279A1, “Pyridazinones as antagonists of alpha4 integrins” (priority 2004, published 2005).

The target of one experiment is T1, human α4β7 integrin (Homo sapiens, UniProt P13612+P26010).
T1 construct: expressed in transfected cells; host or cells: K562 cells, stably transfected
T1 sequence (P13612 34-1032): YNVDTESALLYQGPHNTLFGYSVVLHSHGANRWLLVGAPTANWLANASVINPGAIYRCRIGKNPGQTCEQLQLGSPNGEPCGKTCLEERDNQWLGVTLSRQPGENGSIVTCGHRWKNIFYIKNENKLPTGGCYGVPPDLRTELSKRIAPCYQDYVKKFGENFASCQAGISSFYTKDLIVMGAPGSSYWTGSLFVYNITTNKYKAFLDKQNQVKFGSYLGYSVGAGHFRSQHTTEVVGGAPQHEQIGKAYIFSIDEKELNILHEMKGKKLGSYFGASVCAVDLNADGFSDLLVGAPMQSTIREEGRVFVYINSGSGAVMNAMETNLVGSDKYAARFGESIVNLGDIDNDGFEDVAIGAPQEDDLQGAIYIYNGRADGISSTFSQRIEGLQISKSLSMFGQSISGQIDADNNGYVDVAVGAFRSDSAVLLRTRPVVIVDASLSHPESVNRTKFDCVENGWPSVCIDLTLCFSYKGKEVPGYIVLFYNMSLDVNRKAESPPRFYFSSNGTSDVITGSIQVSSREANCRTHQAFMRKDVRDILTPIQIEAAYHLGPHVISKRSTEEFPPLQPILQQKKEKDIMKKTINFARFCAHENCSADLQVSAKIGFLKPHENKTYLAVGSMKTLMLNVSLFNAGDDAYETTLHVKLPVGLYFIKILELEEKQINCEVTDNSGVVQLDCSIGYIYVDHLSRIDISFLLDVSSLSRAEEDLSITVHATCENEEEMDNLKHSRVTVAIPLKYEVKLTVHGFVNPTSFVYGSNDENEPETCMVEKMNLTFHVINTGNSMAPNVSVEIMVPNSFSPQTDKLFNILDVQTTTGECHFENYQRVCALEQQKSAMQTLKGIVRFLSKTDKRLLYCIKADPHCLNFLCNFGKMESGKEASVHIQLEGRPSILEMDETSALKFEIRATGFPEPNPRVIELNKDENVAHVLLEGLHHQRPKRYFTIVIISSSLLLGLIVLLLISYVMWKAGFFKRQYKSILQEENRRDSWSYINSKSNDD
T1 sequence (P26010 20-798): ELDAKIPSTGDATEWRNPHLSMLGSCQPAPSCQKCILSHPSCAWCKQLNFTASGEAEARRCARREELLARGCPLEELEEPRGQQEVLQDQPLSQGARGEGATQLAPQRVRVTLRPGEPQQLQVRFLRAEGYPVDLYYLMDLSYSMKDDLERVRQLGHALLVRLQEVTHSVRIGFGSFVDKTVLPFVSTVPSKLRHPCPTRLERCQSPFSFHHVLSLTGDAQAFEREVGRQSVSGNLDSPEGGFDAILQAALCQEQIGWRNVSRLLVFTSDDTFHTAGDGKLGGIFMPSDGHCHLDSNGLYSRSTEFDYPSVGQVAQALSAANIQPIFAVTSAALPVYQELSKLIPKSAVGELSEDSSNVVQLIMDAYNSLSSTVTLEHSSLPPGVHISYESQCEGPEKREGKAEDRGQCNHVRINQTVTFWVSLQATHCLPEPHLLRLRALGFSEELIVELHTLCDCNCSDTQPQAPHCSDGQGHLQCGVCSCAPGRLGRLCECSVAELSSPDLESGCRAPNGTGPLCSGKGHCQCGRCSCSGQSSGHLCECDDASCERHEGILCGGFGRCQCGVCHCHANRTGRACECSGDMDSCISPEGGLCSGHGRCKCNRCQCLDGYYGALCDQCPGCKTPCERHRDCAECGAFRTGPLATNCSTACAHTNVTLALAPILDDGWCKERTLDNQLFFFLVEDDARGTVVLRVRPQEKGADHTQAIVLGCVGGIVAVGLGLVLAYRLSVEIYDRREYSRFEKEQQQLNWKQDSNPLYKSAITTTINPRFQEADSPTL
Kind of experiment: α4β7-K562 Cell Adhesion Assay (α4β7 Mediated Adhesion/MAdCAM-1). The format is cell-based. The following applies: α4β7-K562 cell adhesion to hMAdCAM-1; read-out: α4β7 IC50. The method, then: α4β7-K562 Cell Adhesion Assay (α4β7 Mediated Adhesion/MAdCAM-1)
M2 anti-FLAG Antibody Coated 96-well plates (Sigma) were coated for 1 hour at 4° C. with 2-8 μl/well recombinant FLAG-hMAdCAM-1 contained in 100 μL of Dulbecco's PBS, pH 7.4, with 1% BSA and 1 mM Mn ^+2 (PBS-BSA-Mn). Plates were washed once with PBS-BSA-Mn. Buffer was removed and compounds to be tested (50 μL) were added at 2× concentration. Stably transfected K562 cells expressing human α4β7 integrin, (50 μL at 2×10^6/mL) that had been labeled with 100 μg/ml carboxymethyl fluorescein diacetate succinimidyl ester (CFDA-SE; Molecular Probes) for 15 min at 37° C. were added to each well and allowed to adhere for 1 h at room temperature. Plates were washed 4× in PBS-BSA-Mn and then cells were lysed for 2 minutes by addtion of 100 μL of PBS without Ca, Mg supplemented with 0.1 M NaOH.

In the next experiment the target is T2, α4β1 (Homo sapiens, UniProt P05556+P13612).
T2 construct: Ramos Cell Adhesion Assay (α4β1 Mediated Adhesion/VCAM-1); endogenous in cells; host or cells: Ramos cells
T2 sequence (P05556 21-798, one chain of several): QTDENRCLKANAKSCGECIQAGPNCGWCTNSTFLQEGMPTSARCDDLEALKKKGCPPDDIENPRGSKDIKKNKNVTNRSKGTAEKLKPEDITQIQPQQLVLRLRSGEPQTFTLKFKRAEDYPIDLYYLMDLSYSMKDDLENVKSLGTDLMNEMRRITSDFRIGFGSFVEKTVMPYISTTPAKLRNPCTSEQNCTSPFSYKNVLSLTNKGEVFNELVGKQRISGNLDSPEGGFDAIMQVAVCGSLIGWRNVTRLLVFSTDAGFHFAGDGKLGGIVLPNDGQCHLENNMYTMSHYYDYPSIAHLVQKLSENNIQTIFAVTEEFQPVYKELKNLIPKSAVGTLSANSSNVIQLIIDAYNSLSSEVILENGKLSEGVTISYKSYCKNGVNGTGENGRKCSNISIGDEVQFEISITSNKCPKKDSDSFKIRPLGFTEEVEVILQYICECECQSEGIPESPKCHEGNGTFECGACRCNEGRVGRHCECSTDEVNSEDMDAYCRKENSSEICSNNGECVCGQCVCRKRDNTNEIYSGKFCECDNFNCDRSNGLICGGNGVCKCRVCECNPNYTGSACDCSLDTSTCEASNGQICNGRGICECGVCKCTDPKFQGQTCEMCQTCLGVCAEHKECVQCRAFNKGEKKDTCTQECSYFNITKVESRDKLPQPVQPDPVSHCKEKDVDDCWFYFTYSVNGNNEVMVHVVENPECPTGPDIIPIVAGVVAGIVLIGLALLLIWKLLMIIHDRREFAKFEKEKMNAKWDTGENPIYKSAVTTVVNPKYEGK
As to the kind of experiment: Ramos Cell Adhesion Assay (α4β1 Mediated Adhesion/VCAM-1). It counts as cell-based. The conditions noted are these: Ramos cell adhesion to hVCAM-1; read-out: α4β1 IC50. How it is done: Ramos Cell Adhesion Assay (α4β1 Mediated Adhesion/VCAM-1)
Immulon 96 well plates (Dynex) were coated with 100 μL recombinant hVCAM-1 at 4.0 μg/mL in 0.05 M NaCO3 buffer pH 9.0 overnight at 4° C. (R&D Systems). Plates were washed 2 times in PBS with 1% BSA and blocked for 1 h @ room temperature in this buffer. PBS was removed and compounds to be tested (50 μL) were added at 2× concentration. Ramos cells, (50 μL at 2×10^6/mL) labeled with 5 μM Calcein AM (Molecular Probes) for 1 h at 37° C., were added to each well and allowed to adhere for 1 h at room temperature. Plates were washed 4× in PBS+1% BSA and cells were lysed for 15 minutes in 100 μL of 1 M Tris pH 8.0 with 1% SDS.

Turning to `COc1cnn(C)c(=O)c1-c1ccc(C[C@H](NC(=O)C(C(C)C)n2c(C)ccc2C)C(=O)O)cc1` (mixture of isomers) [Cpd 33, 2-[2(2,5-Dimethyl-pyrrol-1-yl)-3-methyl-butyrylamino]-3-[4-(5-methoxy-2-methyl-3-oxo-2,3-dihydro-pyridazin-4-yl)-phenyl]-propionic acid], the IC50 at human α4β7 integrin is 7 nM; at α4β1, 2400 nM. As for `COc1cnn(C)c(=O)c1-c1ccc(C[C@H](NC(=O)C(c2ccccc2)C(C)C)C(=O)O)cc1` (mixture of isomers) [Cpd 57], the figures for the concentration for half-maximal inhibition (IC50) on human α4β7 integrin and at α4β1 were 18 nM and 1220 nM, respectively.

Turning to `COc1cnn(C)c(=O)c1-c1ccc(CC(NC(=O)C(NC(=O)OC(C)(C)C)C(C)C)C(=O)O)cc1` (mixture of isomers) [Cpd 58], the results for the IC50 on human α4β7 integrin and on α4β1 were 18 nM and more than 5000 nM, respectively. For `COc1cnn(C)c(=O)c1-c1ccc(C[C@H](NC(=O)C(NS(=O)(=O)c2ccccc2[N+](=O)[O-])C(C)C)C(=O)O)cc1` (mixture of isomers) [Cpd 77], the IC50 was 36 nM at human α4β7 integrin and 240 nM at α4β1. On to `COc1cnn(C)c(=O)c1-c1ccc(CC(NC(=O)C2CCCN2)C(=O)O)cc1` (mixture of isomers) [Cpd 166], for which the IC50 at human α4β7 integrin was 478 nM; on α4β1 it was more than 5000 nM. The like results for `COc1cnn(C)c(=O)c1-c1ccc(CC(NC(=O)C2CCCN2C(=O)OC(C)(C)C)C(=O)O)cc1` (mixture of isomers) [Cpd 195] were, in that order, 1280 nM and more than 5000 nM. The like results for `CNC(C(=O)NC(Cc1ccc(-c2c(OC)cnn(C)c2=O)cc1)C(=O)O)C(C)C` (single isomer, unassigned) [Cpd 54] were, in that order, 17 nM and 4020 nM. On to `CNC(C(=O)NC(Cc1ccc(-c2c(OC)cnn(C)c2=O)cc1)C(=O)O)C(C)C` (single isomer, unassigned) [Cpd 123], for which the half-maximal inhibitory concentration (IC50) at human α4β7 integrin was 118 nM; on α4β1, more than 5000 nM.

On to `CCOC(=O)[C@H](Cc1ccc(-c2c(OC)cnn(C)c2=O)cc1)NC(=O)c1c(Cl)cccc1Cl` [Cpd 1], for which, at α4β1, the 50% inhibitory concentration (IC50) was more than 5000 nM. The same measure, in the same setting: to `COc1cnn(C)c(=O)c1-c1ccc(C[C@H](NC(=O)C2(NC(C)C)CC2)C(=O)O)cc1` [Cpd 3] belongs more than 5000 nM. Turning to `CCOc1cnn(C)c(=O)c1-c1ccc(C[C@H](NC(=O)c2c(Cl)cccc2Cl)C(=O)O)cc1` [Cpd 4], the IC50 is 1 nM on human α4β7 integrin and 168 nM at α4β1.

Take `Cn1nc2c(c(-c3ccc(C[C@H](NC(=O)c4c(Cl)cccc4Cl)C(=O)O)cc3)c1=O)OCCO2` [Cpd 6, (S)-2-(2,6-Dichloro-benzoylamino)-3-[4-(2-methyl-3-oxo-2,3,6,7-tetrahydro-[1,4]dioxino[2,3-c]pyridazin-4-yl)-phenyl]-propionic acid]: the 50% inhibitory concentration (IC50) on human α4β7 integrin was found to be 1 nM; on α4β1, 49 nM. For `Cn1ncc(OCCOCCO)c(-c2ccc(C[C@H](NC(=O)c3c(Cl)cccc3Cl)C(=O)O)cc2)c1=O` [Cpd 7] the same measures were 2 nM and 192 nM.

With `Cn1ncc(OCCO)c(-c2ccc(C[C@H](NC(=O)c3c(Cl)cccc3Cl)C(=O)O)cc2)c1=O` [Cpd 8], the 50% inhibitory concentration (IC50) amounted to 2 nM on human α4β7 integrin and 303 nM at α4β1. Consider `COc1cnn(C)c(=O)c1-c1ccc(C[C@H](NC(=O)c2c(Cl)c[n+]([O-])cc2Cl)C(=O)O)cc1` [Cpd 9], for which the half-inhibitory concentration (IC50) at human α4β7 integrin worked out at 2 nM; at α4β1, 23 nM. For the compound `CN1CCC(Oc2cnn(C)c(=O)c2-c2ccc(C[C@H](NC(=O)c3c(Cl)cccc3Cl)C(=O)O)cc2)C1` (stereo partly shown) [Cpd 12], the values for the IC50 at human α4β7 integrin and on α4β1 were 2 nM and 305 nM, respectively. Regarding `Cn1nc2c(c(-c3ccc(C[C@H](NC(=O)c4c(Cl)cccc4Cl)C(=O)O)cc3)c1=O)NCCO2` [Cpd 13, (S)-2-(2,6-Dichloro-benzoylamino)-3-[4-(2-methyl-3-oxo-3,5,6,7-tetrahydro-2H-pyridazino[3,4-b][1,4]oxazin-4-yl)-phenyl]-propionic acid], the IC50 on human α4β7 integrin amounted to 2 nM; at α4β1 it was 130 nM.

`COc1cnn(C)c(=O)c1-c1ccc(C[C@H](NC(=O)[C@@H](C(C)C)N(C)C(=O)Cc2ccsc2)C(=O)O)cc1` [Cpd 19]: the IC50 on human α4β7 integrin amounted to 3 nM; on α4β1 it was 44 nM. Turning to `Cn1ncc(N2CCOCC2)c(-c2ccc(C[C@H](NC(=O)c3c(Cl)cccc3Cl)C(=O)O)cc2)c1=O` [Cpd 20], the half-maximal inhibitory concentration (IC50) on human α4β7 integrin worked out at 3 nM; at α4β1, 484 nM. For the compound `Cn1ncc(OCCN2CCOCC2)c(-c2ccc(C[C@H](NC(=O)c3c(Cl)cccc3Cl)C(=O)O)cc2)c1=O` [Cpd 21], the 50% inhibitory concentration (IC50) is 3 nM on human α4β7 integrin and 65 nM at α4β1. As to `O=C(N[C@@H](Cc1ccc(-c2c(OCCN3CCOCC3)cnn(CCO)c2=O)cc1)C(=O)O)c1c(Cl)cccc1Cl` [Cpd 22], the values for the IC50 on human α4β7 integrin and on α4β1 were 3 nM and 376 nM, respectively.

`CN1CCC(Oc2cnn(CCO)c(=O)c2-c2ccc(C[C@H](NC(=O)c3c(Cl)cccc3Cl)C(=O)O)cc2)CC1` [Cpd 23]: the IC50 on human α4β7 integrin was 3 nM; at α4β1, 248 nM.

Turning to `CC(C)Oc1cnn(CCO)c(=O)c1-c1ccc(C[C@H](NC(=O)c2c(Cl)cccc2Cl)C(=O)O)cc1` [Cpd 24], the values for the half-inhibitory concentration (IC50) on human α4β7 integrin and on α4β1 were 4 nM and 249 nM, respectively. As to `COc1cnn(C)c(=O)c1-c1ccc(C[C@H](NC(=O)C2(NC(C)C)CC2)C(=O)O)cc1` [Cpd 146], the half-maximal inhibitory concentration (IC50) on α4β1 came out at 218 nM. For the compound `COc1cnn(C2CCCCC2)c(=O)c1-c1ccc(C[C@H](NC(=O)c2c(Cl)cccc2Cl)C(=O)O)cc1` [Cpd 165], on human α4β7 integrin, the half-maximal inhibitory concentration (IC50) is 471 nM. As for `COC(=O)N[C@@H](Cc1ccc(-c2c(OC)cnn(C)c2=O)cc1)C(=O)O` [Cpd 178], at human α4β7 integrin, the concentration for half-maximal inhibition (IC50) came to 706 nM.

Consider `COc1cnn(C)c(=O)c1-c1ccc(C[C@H](NC(=O)OC(C)(C)C)C(=O)O)cc1` [Cpd 183], for which the IC50 at human α4β7 integrin is 805 nM. The same measure, in the same setting: to `COc1cnn(C)c(=O)c1-c1ccc(C[C@H](NC(=O)C2(OCc3ccccc3)CC2)C(=O)O)cc1` [Cpd 230] belongs 92 nM.

As usually defined, the IC50 is the concentration needed to halve the response being measured.
